Source: patent US12544370B2, “Methods for cancer therapy” (ASCENTAGE PHARMA (SUZHOU) CO., LTD., priority 2018, dated 2026)

Key:
[1] = test system: patients with chronic phase (CP/CML-CP) or accelerated phase (AP/CML-AP) CML resistant to or intolerant of ≥2 prior TKIs or with BCR-ABL T315I; experiment: Phase 1 trial in resistant CML, further safety (Example 2)
Text: (§1) The eligible patients received continuous treatment until disease progression or unacceptable toxicity, consent withdrawal, or death. The primary efficacy endpoints were major cytogenetic response (MCyR) for CP and complete hematological response (CHR) for AP. MCyR includes partial cytogenetic response (PCyR) and complete cytogenetic response (CCyR). Blood samples were collected at various time points on Day 1-2 and Day 27-28 during cycle 1 for PK analyses.

[2] = test system: murine Ba/F3 cells expressing BCR-ABL^T315I; experiment: Subcutaneous tumors, isogenic Ba/F3 BCR-ABL T315I model; assay type: in vivo
[3] = test system: patients with chronic phase (CP/CML-CP) or accelerated phase (AP/CML-AP) CML resistant to or intolerant of ≥2 prior TKIs or with BCR-ABL T315I; experiment: Phase 1 trial in resistant CML, further efficacy (Example 2); assay type: in vivo, human
Text: as §1

[4] = test system: Ba/F3 cells having BCR-ABL^WT
[5] = Example 2, Table 3, treatment related AE, treated population 101
[6] = Table 4, AP-CML, With T315I mut., 11 evaluable
[7] = Table 4, AP-CML, With T315I mut., 11 evaluated
[8] = Table 4, AP-CML, Without T315I mut., 3 evaluable
[9] = Table 4, AP-CML, Without T315I mut., 3 evaluated
[10] = Table 4, CP-CML, With T315I mut., 48 evaluable
[11] = Table 4, CP-CML, With T315I mut., 51 evaluated
[12] = Table 4, CP-CML, Without T315I mut., 33 evaluable
[13] = Table 4, CP-CML, Without T315I mut., 35 evaluated

Cc1ccc(C(=O)Nc2ccc(CN3CCN(C)CC3)c(C(F)(F)F)c2)cc1C#Cc1cnc2[nH]ncc2c1 [compound of formula (I-A), 3-(2-(1H-pyrazolo[3,4-b]pyridin-5-yl)ethynyl)-4-methyl-N-(4-((4-methylpiperazin-1-yl)methyl)-3-(trifluoromethyl)phenyl)-benzamide]
death / CTCAE grade 5 events on study ([1]; Example 2): No death and no CTCAE grade 5 events | ALT elevation, Any Grade [1, 5]: 34 (33.7%) n(%) | ALT elevation, Grade 3, 4 [1, 5]: 2 (2.0%) n(%) | ALT elevation, SAE [1, 5]: 0 n(%) | AST elevation, Any Grade [1, 5]: 37 (36.6%) n(%) | AST elevation, Grade 3, 4 [1, 5]: 3 (3.0%) n(%) | AST elevation, SAE [1, 5]: 0 n(%) | Anemia, Any Grade [1, 5]: 25 (24.8%) n(%) | Anemia, Grade 3, 4 [1, 5]: 12 (11.9%) n(%) | Anemia, SAE [1, 5]: 2 (2.0%) n(%) | Bilirubin elevation, Any Grade [1, 5]: 34 (33.7%) n(%) | Bilirubin elevation, Grade 3, 4 [1, 5]: 1 (1.0%) n(%) | Bilirubin elevation, SAE [1, 5]: 0 n(%) | CPK elevation, Any Grade [1, 5]: 20 (19.8%) n(%) | CPK elevation, Grade 3, 4 [1, 5]: 2 (2.0%) n(%) | CPK elevation, SAE [1, 5]: 0 n(%) | GGT elevation, Any Grade [1, 5]: 24 (23.8%) n(%) | GGT elevation, Grade 3, 4 [1, 5]: 0 n(%) | GGT elevation, SAE [1, 5]: 0 n(%) | Hyperglycaemia, Grade 3, 4 [1, 5]: 0 n(%) | Hyperglycaemia, SAE [1, 5]: 0 n(%) | Hypertriglyceridaemia, Any grade [1, 5]: 55 (54.5%) n(%) | Hypertriglyceridaemia, Grade 3, 4 [1, 5]: 8 (7.9%) n(%) | Hypertriglyceridaemia, SAE [1, 5]: 0 n(%) | Hypocalcaemia, Any grade [1, 5]: 34 (33.7%) n(%) | Hypocalcaemia, Grade 3, 4 [1, 5]: 0 n(%) | Hypocalcaemia, SAE [1, 5]: 0 n(%) | Hypokalaemia, Any Grade [1, 5]: 20 (19.8%) n(%) | Hypokalaemia, Grade 3, 4 [1, 5]: 0 n(%) | Hypokalaemia, SAE [1, 5]: 0 n(%) | Hyponatraemia, Any Grade [1, 5]: 23 (22.8%) n(%) | Hyponatraemia, Grade 3, 4 [1, 5]: 0 n(%) | Hyponatraemia, SAE [1, 5]: 0 n(%) | Myalgia, Grade 3, 4 [1, 5]: 0 n(%) | Myalgia, SAE [1, 5]: 0 n(%) | Proteinuria, Any grade [1, 5]: 35 (34.7%) n(%) | Proteinuria, Grade 3, 4 [1, 5]: 5 (5.0%) n(%) | Proteinuria, SAE [1, 5]: 0 n(%) | Pyrexia, Any Grade [1, 5]: 18 (17.8%) n(%) | Pyrexia, Grade 3, 4 [1, 5]: 7 (6.9%) n(%) | Pyrexia, SAE [1, 5]: 1 (1.0%) n(%) | Rash, Any Grade [1, 5]: 15 (14.9%) n(%) | Rash, Grade 3, 4 [1, 5]: 2 (2.0%) n(%) | Rash, SAE [1, 5]: 0 n(%) | Skin mass, Any Grade [1, 5]: 10 (9.9%) n(%) | Skin mass, Grade 3, 4 [1, 5]: 1 (1.0%) n(%) | Skin mass, SAE [1, 5]: 0 n(%) | Skin pigmentation, Any Grade [1, 5]: 79 (78.2%) n(%) | Skin pigmentation, Grade 3, 4 [1, 5]: 0 n(%) | Skin pigmentation, SAE [1, 5]: 0 n(%) | Thrombocytopenia, Any grade [1, 5]: 76 (75.2%) n(%) | Thrombocytopenia, Grade 3, 4 [1, 5]: 50 (49.5%) n(%) | Thrombocytopenia, SAE [1, 5]: 6 (5.9%) n(%) | leukopenia, Grade 3, 4 [1, 5]: 20 (19.8%) n(%) | leukopenia, SAE [1, 5]: 0 n(%) | patients who experienced DLT ([1]; Example 2, 60 mg cohort): Two out of 3 | grade ¾ TRAE thrombocytopenia ([1]; Example 2, 101 patients): 49.5% | tolerability ([1]; Example 2, 101 patients): well-tolerated in all dose cohorts with an exception of 60 mg cohort | MTD ([1]; Example 2, QOD): 50 mg | patients who experienced ≥1 treatment related adverse events (TRAEs) ([1]; Example 2, all patients): 101 (100%) n (%) | effect on subcutaneous tumors [2]: complete regression | progression free survival (PFS) rate at 18-month ([3]; AP patients (FIG. 7B)): 61% | progression free survival (PFS) rate at 18-month ([3]; CP patients (FIG. 7B)): 94% | anti-leukemic activity by dose ([3]; Example 2): potent anti-leukemic activities at doses ≥12 mg QOD | CHR achieved ([3]; Example 2, 68 evaluable patients with non-CHR at baseline (CP+AP)): 63 (92.6%) n (%) | Complete molecular response, percent ([3]; Table 4, AP-CML, All Patients, 14 evaluated): (14.3%) | Complete hematological response, percent ([3]; Table 4, AP-CML, With T315I mut., 10 evaluable): (80.0%) | Complete cytogenetic response, percent [3, 6]: (45.5%) | Major cytogenetic response, percent [3, 6]: (54.5%) | Complete molecular response, percent [3, 7]: (18.2%) | Major/Complete molecular response, percent [3, 7]: (45.5%) | Complete cytogenetic response [3, 8]: 0 n(%) | Complete hematological response [3, 8]: 3 (100.0%) n(%) | Major cytogenetic response [3, 8]: 0 n(%) | Complete molecular response [3, 9]: 0 n(%) | Major/Complete molecular response [3, 9]: 0 n(%) | Complete molecular response, percent ([3]; Table 4, CP-CML, All Patients, 86 evaluated): (20.9%) | Complete hematological response, percent ([3]; Table 4, CP-CML, With T315I mut., 33 evaluable): (97.0%) | Complete cytogenetic response, percent [3, 10]: (77.1%) | Major cytogenetic response, percent [3, 10]: (81.3%) | Complete molecular response, percent [3, 11]: (29.4%) | Major/Complete molecular response, percent [3, 11]: (52.9%) | Complete hematological response, percent ([3]; Table 4, CP-CML, Without T315I mut., 22 evaluable): (90.9%) | Complete cytogenetic response, percent [3, 12]: (36.4%) | Major cytogenetic response, percent [3, 12]: (51.5%) | Complete molecular response, percent [3, 13]: (8.6%) | Major/Complete molecular response, percent [3, 13]: (14.3%) | survival rate of isogenic leukemia mice [4]: significantly improved the survival rate
